Tests used:
[1] = cited from earlier work; for anxiety in the elevated plus-maze and social interaction tests: blockade of amygdala NPY Y1R, low stress conditions, Kask et al., 1998b, Sajdyk, 1999
rats = details: administered into the dorsal periaqueductal gray matter; Kask et al., 1998d; cited from earlier work
WistarF/Han (WF) rats [2] = test: Social interaction (SI) test with Y1R antagonist pre-treatment (Example 4); assay type: in vivo; details: Fig. 10
Method: (§1) Animals. Male WistarF/Han (WF) rats (Central Animal Laboratory, Hannover Medical School, Hannover, Germany, see http://www.mh-hannover.de/institut/tierlabor/wf.htm for details), weighing 330±31 g±SD, were housed in a sound-proof, temperature controlled (24.0±0.5°C) room under specific pathogen free conditions with a 12/12h dark/light cycle (lights on at 07.00 with illumination level of 80 Lux). Food (Altromin lab chow pellets) and tap water were available ad libitum. Under ketamine/xylasine (100/5 mg/kg, i.p.) anesthesia, the rats were fixed in a Kopf stereotaxic frame and implanted with cannulae (Plastic One, Inc., Roanoke, VA, USA) above the lateral ventricle. All research and animal care procedures were approved by the Lower Saxony district government (Hannover, Germany) and followed principles described in the European Community's Council Directive of 24 November 1986 (86/609/EEC).
Surgery and i.c.v. application. […]
Animals were randomly divided into eight experimental groups (n=6-8/group), which completed one SI test of anxiety: (1) aCSF+aCSF+aCSF; (2) BIBP+aCSF+aCSF; (3) aCSF+isoleucyl thiazolidine+aCSF; (4) BIBP+isoleucyl thiazolidine+aCSF; (5) aCSF+aCSF+NPY; (6) BIBP+aCSF+NPY; (7) aCSF+P32/89+NPY; (8) BIBP+isoleucyl thiazolidine+NPY. […] The time spent in active social interaction (SI-time), 1h, and 12h food-intake were measured. […]
Social interaction (SI) test. […] Behavior was monitored using a video camera placed above the field inside the testing/isolation box. The SI behavior of both rats was recorded on-line from a monitor placed outside on top of the box. The following parameters were scored by an observer (HPN) unaware of the substrain of rats: duration of time spent in sniffing, following, crawling under and over other rats, but not passive body contact (resting, sleeping). […]
(§2) Statistical analysis. Data obtained from the measures SI time and 1h food intake were analyzed by one-way (factor: "treatment") ANOVA. […]

WistarF/Han (WF) rats [3] = test: 1h food intake with Y1R antagonist pre-treatment (Example 4); assay type: in vivo; details: i.c.v., BIBP3226 100nmol pre-treatment; isoleucyl thiazolidine 50nmol; NPY 0.8nmol; Fig. 11
Method: as §1
(§3) Surgery and i.c.v. application. For surgery, rats were anesthetized and prepared with i.c.v. cannulae (coordinates: A:-0.7mm caudal, L:1.4mm lateral to bregma; and V3.2mm ventral to the skull surface; tooth bar +3.0 above ear bars) using standard stereotaxic procedures as described in detail elsewhere (von Hörsten et al., 1998a,b,c). After a 7-day recovery period, successful ventricle cannulation was confirmed by an angiotensin drinking response (von Hörsten et al., 1998a). Rats showing a positive drinking response (n=56) were then habituated to experimental handling by daily sham injections for seven days.
Animals were randomly divided into eight experimental groups (n=6-8/group), which completed one SI test of anxiety: (1) aCSF+aCSF+aCSF; (2) BIBP+aCSF+aCSF; (3) aCSF+isoleucyl thiazolidine+aCSF; (4) BIBP+isoleucyl thiazolidine+aCSF; (5) aCSF+aCSF+NPY; (6) BIBP+aCSF+NPY; (7) aCSF+P32/89+NPY; (8) BIBP+isoleucyl thiazolidine+NPY. Animals in each group were treated in an identical way in each phase, receiving i.c.v. injections -60mins and -55min before behavioral testing. Experiments spanned two nights with groups counterbalances on both dark cycles. The injection cannula was attached to a Hamilton microsyringe with approximately 30cm of polyethylene tubing and all compounds were infused in a total volume of 5.0µl at a rate of 5.0 µl/min using a TSE multichannel infusion pump (Bad Homburg, Germany). The time spent in active social interaction (SI-time), 1h, and 12h food-intake were measured.
Peptides and Antagonist. Rat neuropeptide Y1-36 was obtained from Polypeptide Laboratories (Wolfenbüttel, Germany). The NPY Y1 receptor antagonist BIBP3226 was purchased from American Peptide Company, Sunnyvale, CA, USA (Cat#:60-1-22B). […]
as §2

[4] = tested on: olfactory bulbectomized rats; details: 7-day i.c.v. administration; Song et al., 1996; cited from earlier work
WistarF/Han (WF) rats [5] = test: 1h and 12h food intake after combined i.c.v. treatment (Example 3); assay type: in vivo; details: single agents or combination, isoleucyl thiazolidine 5pmol-500nmol, NPY 50pmol-1.6nmol, Fig. 8
Method: as §1, with “330-370g,” for “330±31 g±SD,”
as §3, with “(n=59)” for “(n=56)”
Animals were randomly divided into two sets of four experimental groups (n=5-6/group), which completed different consecutive SI test of anxiety. […] The time spent in active social interaction (SI-time), 1h and 12h food-intake were measured. […]
Statistical analysis. Data from repeated observations (food intake) were analyzed by two-way analyses of variance for repeated measures (ANOVA) (factors: "substrain" and "food intake" as repeated measure). Data obtained from simple measures such as DP IV activity or SI time were analyzed by one-way (factor: "substrain") ANOVA. […]

[6] = i.c.v. injection, Kask et al. (1996)

Row | Compound | anxiety in the elevated plus-maze and social interaction tests [1] | time spent in active social interaction (rats) | effect on isoleucyl thiazolidine-induced potentiation of the NPY mediated anxiolytic-like effect on SI behavior (WistarF/Han (WF) rats [2]; i.c.v. pre-treatment, BIBP3226 100nmol) | effect in the elevated plus-maze test [1, 6] | locomotor effect [1, 6] | 1h feeding under Y1R blockade (WistarF/Han (WF) rats [3]) | behavioral and neurotransmitters deficits [4] | anxiolytic-like effect in the SI test under Y1 receptor blockade (WistarF/Han (WF) rats [2]; i.c.v., BIBP3226 100nmol pre-treatment, isoleucyl thiazolidine 50nmol, NPY 0.8nmol) | amount of food eaten within 1h (WistarF/Han (WF) rats [5])
1 | NC(=O)NCc1ccc(CNC(=O)[C@@H](CCCN=C(N)N)NC(=O)C(c2ccccc2)c2ccccc2)cc1 [BIB03304] | did not increase anxiety |  |  |  |  |  |  |  | 
2 | NC(N)=NCCC[C@@H](NC(=O)C(c1ccccc1)c1ccccc1)C(=O)NCc1ccc(O)cc1 [BIBP3226] | did not increase anxiety | decreased | can block | anxiogenic-like effects | without any locomotor deficit | only partly affected |  |  | 
3 | NPY: Rat neuropeptide Y1-36 obtained from Polypeptide Laboratories |  |  |  |  |  | only partly mediated by the Y1R | attenuated | antagonized | "u-shaped" dose-dependent feeding effect

Reference: EP1891948A1, “Treatment of neurological and neuropsychological disorders” (Probiodrug AG, priority 2000, dated 2002)
